Assay [1] has as its system kidney and liver tumors in Tsc1+/− mice. Kind of assay: Treatment trial in Tsc1+/− mouse model of Tsc (1 month study). The note with it: female mice only. The class given is in vivo. Here is the method: (§1) Also trials of treatment with a Compound A in mouse models of Tsc may be carried out (1 month study). A first trial is performed in the Tsc1+/− mice, in which there is a sex effect on tumor development, so that female mice are studied only. A second trial is performed in Tsc2+/− mice, in which the use of the carcinogen ENU is performed to enhance and accelerate the rate of tumor formation in the kidney.

Assay [2] concerns kidney and liver tumors in Tsc2+/− mice. As to the kind of experiment: Treatment trial in Tsc2+/− mouse model of Tsc with carcinogen ENU (1 month study). The class given is in vivo. The settings on record: ENU to accelerate kidney tumor formation. Here is the method:
as §1

Assay [3] concerns NF1 deficient cell or animals (mice) models. Kind of assay: Activity in neurofibromatosis, NF1 deficient cell or animal models. The source says: Activity in neurofibromatosis may be determined in NF1 deficient cell or animals (mice) models, e.g. analogously to TSC deficient cell or animals (mice) models.
Assay [4] relates to Tsc1−/− and Tsc2−/− and control MEF cell lines. Kind of assay: Growth of Tsc1−/−, Tsc2−/− and control MEF cell lines, MTT assay. The class given is cell-based. The note with it: Tsc1 null and control MEF cell lines. From the text: MEF cell lines are generated in which there is loss of either Tsc1 or Tsc2 and which have a profound decrease in signaling through Akt. Decreased Akt activation may be seen in response to all stimuli, including serum, PDGF, EGF, insulin, and IGF1. […] In addition, over-expression of PDGFRα by short or long-term transfection leads to increased Akt phosphorylation and stimulation in response to multiple growth factors.
Signaling in Tsc 1 or Tsc 2 null MEFs in response to IGF1 in combination with a Compound A may be explored. Wortmannin may be used as an […].
Growth of Tsc1−/− and Tsc2−/− and control MEF cell lines in serum may be assessed in triplicate wells of cells plated at uniform density using the MTT assay. Growth responses are normalized individually for each cell line, to growth in the absence of any stimulation.

SMILES strings stand for the structures.

In the case of `CO[C@H]1C[C@@H]2CC[C@@H](C)[C@@](O)(O2)C(=O)C(=O)N2CCCC[C@H]2C(=O)O[C@H]([C@H](C)C[C@@H]2CC[C@@H](OCCO)[C@H](OC)C2)CC(=O)[C@H](C)/C=C(\C)[C@@H](O)[C@@H](OC)C(=O)[C@H](C)C[C@H](C)/C=C/C=C/C=C/1C` [Compound A, 40-O-(2-hydroxyethyl)-rapamycin], the “reduction of kidney and liver tumors” value was “dramatic effect in reducing kidney and liver tumors” in assay [1]; “dramatic effect in reducing kidney and liver tumors” in assay [2]. The “activity in neurofibromatosis assays” value in assay [3] is on record as “shows activity”. Besides, the “growth response of the cells to IGF1” value in assay [4] (IGF1 stimulation) is listed as “blocks any growth response of the cells to IGF1”. The “growth of the cell lines (MTT assay)” value in assay [4] (serum or IGF1 stimulation, all conditions) is recorded as “significantly reduces growth under all conditions”.

The values above are taken from patent US20100305150A1, “TUBEROUS SCLEROSIS TREATMENT” (priority 2006, published 2010).
